Measured values: US20250134904A1, “SOLID PHARMACEUTICAL FORMULATIONS OF VARENICLINE” (MEDICHEM, S.A., priority 2021, published 2025)
Counter-ions that a name gives are not always drawn.

Tests used:
[1] = based on lifetime exposure; cited from earlier work
[2] = HPLC-MS quantification of N-nitroso-varenicline impurity (II) in tablets, after manufacture and after storage/stress; format: physicochemical; details: starting material before tablet manufacture
Procedure: The N-nitroso-varenicline-impurity (II) level in the solid pharmaceutical formulation of the present invention may be detected by high performance liquid chromatography (HPLC) method disclosed in the present invention.
HPLC Method Used for Analyzing N-Nitroso-Varenicline Impurity (II)
The chromatographic separation was carried out using an Acquity UPLC HSS PFP, 2.1×100 mm, 1.8 μm at 35±2° C.
Mobile phase A: 0.05% (v/v) formic acid solution in water.
Mobile phase A is prepared as follows: Dilute with water, 0.5 mL of formic acid in a 1000 mL volumetric flask.
Mobile phase B: Acetonitrile LC-MS grade.
The chromatograph was programmed as follows: initial 2 min isocratic 90% mobile phase A; 2-11 min linear gradient to 50% mobile phase A; 11-16 min isocratic 50% mobile phase A; 16-18 min linear gradient to 90% mobile phase A; 18-23 min isocratic 90% mobile phase A.
The chromatograph was equipped with equipped with a mass detector. The acquisition was made in Single Ion Monitoring. The ion with m/z 241.0 was monitored at 0.8 points/s. The ionization mode was positive electrospray (ESI+), the source temperature was set at 130° C., desolvation gas flow was at 500 L/h and the capillary voltage was set at 3 kV. The cone voltage was set at 20 V for the ion with m/z 241.0. […]
The quantification (μg/g or ppm) of N-nitroso-varenicline impurity (II) in test specimen was performed as follows: […]

| SMILES | intake considered reasonably safe for humans (FDA) [1] | N-nitroso-varenicline impurity (II) content of the varenicline tartrate used as starting material [2] |
| --- | --- | --- |
| O=NN1CC2CC(C1)c1cc3nccnc3cc12 [N-nitroso-varenicline impurity (II)] | up to 37 ng/day |  |
| c1cnc2cc3c(cc2n1)C1CNCC3C1 [varenicline tartrate, 7,8,9,10-tetrahydro-6,10-methano-6H-pyrazino[2,3-h][3]benzazepine] |  | less than 0.4 ppm |
